Test results taken from patent publication US20120220581A1, “IMIDAZO[1,2-b]PYRIDAZINE DERIVATIVES AND THEIR USE AS PDE10 INHIBITORS” (Janssen-Cilag, S.A., priority 2009, published 2012).
Read-outs that look alike come from different tables or passages of the source.

What was measured:
[1] = biological target: T1, Rat recombinant PDE10A (rPDE10A2) (Rattus norvegicus, UniProt Q9QYJ6); test: In vitro assay PDE10A (SPA, 3H-cAMP); format: biochemical
T1 construct: inferred from the Ni metal chelate purification; made in house; host or cells: Sf9 insect cells (baculovirus)
T1 sequence (Q9QYJ6 1-794): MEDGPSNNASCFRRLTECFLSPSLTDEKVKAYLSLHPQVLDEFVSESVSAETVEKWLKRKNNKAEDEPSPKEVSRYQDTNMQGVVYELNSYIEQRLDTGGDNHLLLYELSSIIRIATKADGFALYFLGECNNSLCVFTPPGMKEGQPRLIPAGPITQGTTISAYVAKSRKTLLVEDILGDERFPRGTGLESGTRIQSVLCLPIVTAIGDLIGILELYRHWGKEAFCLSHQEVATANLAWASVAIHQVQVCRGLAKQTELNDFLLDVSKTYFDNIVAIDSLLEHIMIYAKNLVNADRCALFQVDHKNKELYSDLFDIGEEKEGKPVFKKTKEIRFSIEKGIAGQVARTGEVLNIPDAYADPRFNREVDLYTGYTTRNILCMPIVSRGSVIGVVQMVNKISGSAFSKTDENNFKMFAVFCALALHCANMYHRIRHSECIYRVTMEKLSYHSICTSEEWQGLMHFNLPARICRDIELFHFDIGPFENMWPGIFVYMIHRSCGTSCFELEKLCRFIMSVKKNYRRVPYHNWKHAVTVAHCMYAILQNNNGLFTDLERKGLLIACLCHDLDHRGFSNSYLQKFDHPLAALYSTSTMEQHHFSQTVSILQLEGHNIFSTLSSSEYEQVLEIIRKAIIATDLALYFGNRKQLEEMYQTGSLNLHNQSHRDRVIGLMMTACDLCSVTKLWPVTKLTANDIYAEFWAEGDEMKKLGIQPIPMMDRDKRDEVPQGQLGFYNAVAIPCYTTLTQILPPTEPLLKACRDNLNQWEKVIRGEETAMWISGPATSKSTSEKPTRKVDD
In short: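 Rat PDE10A2 expressed in Sf9 cells and Ni-purified; incubated with 60 nM cAMP plus 0.008 μCi 3H-cAMP in 50 mM Tris pH 7.8, 8.3 mM MgCl2, 1.7 mM EGTA for 60 min at room temperature. Product quantified by scintillation proximity counting; final DMSO 1%.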

PDE4D3 = PDE4D3 (Homo sapiens, UniProt Q08499); test: In vitro PDE selectivity assay (SPA), PDE4D3; format: biochemical; conditions: hPDE4D3; read-out: PDE 4D3 (expressed as pIC50) (converted)
Sequence of PDE4D3 (Q08499 1-673 isoform Q08499-2): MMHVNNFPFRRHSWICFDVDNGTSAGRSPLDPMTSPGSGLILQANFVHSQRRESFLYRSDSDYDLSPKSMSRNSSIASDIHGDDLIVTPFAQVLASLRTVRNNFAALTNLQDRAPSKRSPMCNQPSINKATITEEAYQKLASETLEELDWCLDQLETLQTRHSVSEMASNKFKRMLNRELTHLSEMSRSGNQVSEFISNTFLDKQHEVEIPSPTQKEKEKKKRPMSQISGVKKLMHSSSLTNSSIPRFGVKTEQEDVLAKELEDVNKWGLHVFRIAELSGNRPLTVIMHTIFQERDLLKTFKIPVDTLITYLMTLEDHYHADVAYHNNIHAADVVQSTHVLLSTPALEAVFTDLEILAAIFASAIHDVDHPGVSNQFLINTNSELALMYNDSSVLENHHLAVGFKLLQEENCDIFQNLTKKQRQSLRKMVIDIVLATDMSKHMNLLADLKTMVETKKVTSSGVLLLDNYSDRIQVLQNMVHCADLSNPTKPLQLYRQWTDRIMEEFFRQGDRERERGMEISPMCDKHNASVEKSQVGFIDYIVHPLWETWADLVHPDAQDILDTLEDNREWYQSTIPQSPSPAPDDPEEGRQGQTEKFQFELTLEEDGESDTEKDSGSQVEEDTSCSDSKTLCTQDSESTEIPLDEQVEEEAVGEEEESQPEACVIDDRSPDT
Protocol: (§1) Rat recombinant PDE10A (rPDE10A2) was expressed in Sf9 cells using a recombinant rPDE10A baculovirus construct. Cells were harvested after 48 h of infection and the rPDE10A protein was purified by metal chelate chromatography on Ni-sepharose 6FF. Tested compounds were dissolved and diluted in 100% DMSO to a concentration 100 fold of the final concentration in the assay. Compound dilutions (0.4 μl) were added in 384 well plates to 20 μl of incubation buffer (50 mM Tris pH 7.8, 8.3 mM MgCl2, 1.7 mM EGTA). 10 μl of rPDE10A enzyme in incubation buffer was added and the reaction was started by addition of 10 μl substrate to a final concentration of 60 nM cAMP and 0.008 μCi ^3H-cAMP. The reaction was incubated for 60 minutes at room temperature. After incubation, the reaction was stopped with 20 μl of stop solution consisting of 17.8 mg/ml PDE SPA (scintillation proximity assay) beads. After sedimentation of the beads during 30 minutes the radioactivity was measured in a Perkin Elmer Topcount scintillation counter and results were expressed as cpm. For blanc values the enzyme was omitted from the reaction and replaced by incubation buffer. Control values were obtained by addition of a final concentration of 1% DMSO instead of compound. The same assay principle is applied for the measurement of the affinity of the compound for other members of the PDE family with appropriate modifications in incubation buffer, substrate concentration, incubation time and stop solution. An overview of the different protocols is presented in table A. A best fit curve is fitted by a minimum sum of squares method to the plot of % of control value substracted with blanc value versus compound concentration and the half maximal inhibitory concentration (IC50) value is derived from this curve.
(§2) The compounds of the invention are generally selective for PDE10 compared to other PDEs and there are a few that also have affinity for PDE1B1, 4D3 and 5A3.

PDE5A3 = PDE5A3 (Homo sapiens, UniProt O76074); test: In vitro PDE selectivity assay (SPA), PDE5A3; format: biochemical; conditions: hPDE5A3; read-out: PDE 5A3 (expressed as pIC50) (converted)
Protocol: as §1, §2

[2] = biological target: other members of the PDE family (Homo sapiens, UniProt O00408); test: In vitro PDE selectivity assay (SPA), other members of the PDE family (protocols in Table A); format: biochemical; conditions: hPDE2A; read-out: PDE 2A (expressed as pIC50) (converted)
Sequence of other members of the PDE family (Homo sapiens, UniProt O00408) (O00408 whole entry, canonical isoform): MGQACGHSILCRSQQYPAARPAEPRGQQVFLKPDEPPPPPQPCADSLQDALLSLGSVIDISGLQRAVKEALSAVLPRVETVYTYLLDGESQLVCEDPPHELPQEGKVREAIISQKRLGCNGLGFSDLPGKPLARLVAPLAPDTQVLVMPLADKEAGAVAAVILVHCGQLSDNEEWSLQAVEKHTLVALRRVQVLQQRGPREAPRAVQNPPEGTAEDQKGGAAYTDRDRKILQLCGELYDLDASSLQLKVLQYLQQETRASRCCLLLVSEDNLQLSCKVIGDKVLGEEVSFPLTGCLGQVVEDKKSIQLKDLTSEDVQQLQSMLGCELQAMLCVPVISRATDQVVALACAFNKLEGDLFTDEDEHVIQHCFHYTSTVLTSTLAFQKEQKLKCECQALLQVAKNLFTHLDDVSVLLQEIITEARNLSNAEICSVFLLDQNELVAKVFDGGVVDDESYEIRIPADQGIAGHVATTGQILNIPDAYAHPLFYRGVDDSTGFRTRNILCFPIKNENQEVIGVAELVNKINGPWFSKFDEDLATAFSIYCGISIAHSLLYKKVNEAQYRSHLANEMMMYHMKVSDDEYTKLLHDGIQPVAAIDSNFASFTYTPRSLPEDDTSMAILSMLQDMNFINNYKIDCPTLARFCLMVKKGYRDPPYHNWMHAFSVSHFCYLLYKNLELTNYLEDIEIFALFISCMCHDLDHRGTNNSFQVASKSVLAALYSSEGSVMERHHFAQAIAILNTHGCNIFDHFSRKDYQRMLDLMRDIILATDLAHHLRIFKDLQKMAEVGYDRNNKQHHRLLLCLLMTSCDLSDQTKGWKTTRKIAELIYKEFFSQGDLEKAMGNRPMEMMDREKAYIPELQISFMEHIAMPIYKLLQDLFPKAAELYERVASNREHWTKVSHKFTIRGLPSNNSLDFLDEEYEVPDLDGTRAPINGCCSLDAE
In short: (§3)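 Inhibition of each PDE isoform was measured by scintillation proximity assay with ³H-cyclic nucleotide substrate, using incubation buffer, substrate concentration, incubation time and stop solution adapted per isoform. Compounds were tested in dose-response against 1% DMSO controls and enzyme-free blanks. IC50 came from a least-squares fit of blank-subtracted % of control versus concentration.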

[3] = biological target: other members of the PDE family (Homo sapiens, UniProt O76083); test: as above; format: biochemical; conditions: hPDE9A; read-out: PDE 9A (expressed as pIC50) (converted)
Sequence of other members of the PDE family (Homo sapiens, UniProt O76083) (O76083 whole entry): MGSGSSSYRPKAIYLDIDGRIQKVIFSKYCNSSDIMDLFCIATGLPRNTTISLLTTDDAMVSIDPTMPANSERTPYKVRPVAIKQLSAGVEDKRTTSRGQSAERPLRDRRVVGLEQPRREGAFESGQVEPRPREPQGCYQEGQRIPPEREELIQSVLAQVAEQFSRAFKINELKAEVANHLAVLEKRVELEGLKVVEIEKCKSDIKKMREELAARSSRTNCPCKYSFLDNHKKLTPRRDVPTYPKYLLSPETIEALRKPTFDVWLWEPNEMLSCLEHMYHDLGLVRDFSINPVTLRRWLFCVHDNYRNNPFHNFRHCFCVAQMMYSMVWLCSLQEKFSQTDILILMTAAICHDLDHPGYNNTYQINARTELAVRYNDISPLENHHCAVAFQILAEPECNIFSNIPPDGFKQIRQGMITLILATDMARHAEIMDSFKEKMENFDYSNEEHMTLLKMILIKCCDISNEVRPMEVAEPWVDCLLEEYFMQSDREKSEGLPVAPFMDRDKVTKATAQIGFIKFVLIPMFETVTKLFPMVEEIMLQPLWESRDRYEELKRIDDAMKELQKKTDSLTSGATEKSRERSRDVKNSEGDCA
In short: as §3

[4] = biological target: other members of the PDE family (Homo sapiens, UniProt Q13946); test: as above; format: biochemical; conditions: hPDE7A1; read-out: PDE 7A (expressed as pIC50) (converted)
Sequence of other members of the PDE family (Homo sapiens, UniProt Q13946) (Q13946 whole entry): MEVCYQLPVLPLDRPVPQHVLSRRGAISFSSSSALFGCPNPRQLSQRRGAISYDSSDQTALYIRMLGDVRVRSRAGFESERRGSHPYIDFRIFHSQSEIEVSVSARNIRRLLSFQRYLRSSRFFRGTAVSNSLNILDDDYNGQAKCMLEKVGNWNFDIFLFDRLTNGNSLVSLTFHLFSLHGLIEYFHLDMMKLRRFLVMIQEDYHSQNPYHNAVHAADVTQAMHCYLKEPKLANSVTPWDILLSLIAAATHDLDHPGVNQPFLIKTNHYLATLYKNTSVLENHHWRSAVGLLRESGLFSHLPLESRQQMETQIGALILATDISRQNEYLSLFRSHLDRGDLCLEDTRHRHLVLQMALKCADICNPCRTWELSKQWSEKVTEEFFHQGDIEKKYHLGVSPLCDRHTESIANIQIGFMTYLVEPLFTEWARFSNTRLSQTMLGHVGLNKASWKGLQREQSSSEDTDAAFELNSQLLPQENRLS
In short: as §3

[5] = biological target: other members of the PDE family (Homo sapiens, UniProt Q14432); test: as above; format: biochemical; conditions: hPDE3A; read-out: PDE 3A (expressed as pIC50) (converted)
Sequence of other members of the PDE family (Homo sapiens, UniProt Q14432) (Q14432 whole entry): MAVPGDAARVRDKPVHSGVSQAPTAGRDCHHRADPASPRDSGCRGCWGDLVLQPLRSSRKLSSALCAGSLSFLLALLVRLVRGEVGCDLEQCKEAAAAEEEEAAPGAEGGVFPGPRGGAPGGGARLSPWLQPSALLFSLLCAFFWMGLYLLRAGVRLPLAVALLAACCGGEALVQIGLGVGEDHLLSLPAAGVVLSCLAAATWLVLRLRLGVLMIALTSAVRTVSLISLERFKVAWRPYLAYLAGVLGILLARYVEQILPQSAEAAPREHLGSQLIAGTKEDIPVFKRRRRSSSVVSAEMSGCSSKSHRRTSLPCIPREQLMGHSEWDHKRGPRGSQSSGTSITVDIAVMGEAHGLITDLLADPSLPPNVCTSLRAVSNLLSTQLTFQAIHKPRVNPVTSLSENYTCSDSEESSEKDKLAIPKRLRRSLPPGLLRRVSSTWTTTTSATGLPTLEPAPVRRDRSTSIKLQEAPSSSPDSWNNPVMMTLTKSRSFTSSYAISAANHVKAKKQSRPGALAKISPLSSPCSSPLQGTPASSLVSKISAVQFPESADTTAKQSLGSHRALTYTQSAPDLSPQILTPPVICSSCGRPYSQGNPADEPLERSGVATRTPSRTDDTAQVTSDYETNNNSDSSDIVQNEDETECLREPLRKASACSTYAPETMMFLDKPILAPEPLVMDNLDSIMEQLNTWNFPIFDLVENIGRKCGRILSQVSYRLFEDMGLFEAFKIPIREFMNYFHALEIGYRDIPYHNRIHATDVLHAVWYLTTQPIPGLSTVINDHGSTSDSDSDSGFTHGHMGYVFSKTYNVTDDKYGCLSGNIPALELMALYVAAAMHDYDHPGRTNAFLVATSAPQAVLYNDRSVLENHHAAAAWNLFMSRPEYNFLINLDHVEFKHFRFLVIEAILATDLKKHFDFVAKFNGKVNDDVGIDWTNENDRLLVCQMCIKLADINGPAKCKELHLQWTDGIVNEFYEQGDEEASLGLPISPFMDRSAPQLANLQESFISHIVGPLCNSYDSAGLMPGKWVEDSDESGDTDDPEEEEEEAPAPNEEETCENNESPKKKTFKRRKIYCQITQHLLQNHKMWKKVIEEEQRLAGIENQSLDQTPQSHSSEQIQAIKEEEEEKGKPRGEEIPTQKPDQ
In short: as §3

[6] = biological target: other members of the PDE family (Homo sapiens, UniProt Q9HCR9); test: as above; format: biochemical; conditions: hPDE11A4; read-out: PDE 11A4 (expressed as pIC50) (converted)
Sequence of other members of the PDE family (Homo sapiens, UniProt Q9HCR9) (Q9HCR9 whole entry): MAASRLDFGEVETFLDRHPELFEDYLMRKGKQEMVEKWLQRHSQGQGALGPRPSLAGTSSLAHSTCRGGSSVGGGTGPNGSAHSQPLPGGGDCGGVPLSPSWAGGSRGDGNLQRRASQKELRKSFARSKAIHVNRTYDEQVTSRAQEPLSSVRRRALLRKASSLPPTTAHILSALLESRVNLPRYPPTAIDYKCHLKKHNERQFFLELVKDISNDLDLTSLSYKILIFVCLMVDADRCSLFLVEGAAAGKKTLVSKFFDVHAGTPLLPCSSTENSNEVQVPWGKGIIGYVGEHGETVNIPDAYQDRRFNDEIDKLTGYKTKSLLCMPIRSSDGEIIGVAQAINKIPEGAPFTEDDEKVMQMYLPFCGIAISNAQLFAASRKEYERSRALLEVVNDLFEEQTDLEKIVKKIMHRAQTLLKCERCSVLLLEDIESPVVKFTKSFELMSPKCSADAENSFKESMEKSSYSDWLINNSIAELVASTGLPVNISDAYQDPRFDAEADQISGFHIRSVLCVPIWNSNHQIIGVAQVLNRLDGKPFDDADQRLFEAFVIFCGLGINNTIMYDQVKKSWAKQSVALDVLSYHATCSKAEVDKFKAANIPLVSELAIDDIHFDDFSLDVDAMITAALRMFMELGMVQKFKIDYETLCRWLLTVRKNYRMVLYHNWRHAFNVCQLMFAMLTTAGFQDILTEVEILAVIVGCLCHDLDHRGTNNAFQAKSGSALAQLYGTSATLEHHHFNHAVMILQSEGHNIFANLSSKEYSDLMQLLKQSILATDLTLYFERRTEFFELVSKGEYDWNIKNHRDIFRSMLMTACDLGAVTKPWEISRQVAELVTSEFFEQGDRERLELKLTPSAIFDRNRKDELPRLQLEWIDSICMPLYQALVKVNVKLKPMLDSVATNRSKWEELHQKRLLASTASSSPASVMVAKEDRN
In short: as §3

[7] = system: apomorphine-induced stereotypy in rats; test: Apomorphine-induced stereotypy in rats (APO); format: in vivo; conditions: Rattus norvegicus, ≧: active in 30% of the animals at the indicated dose, ≦: active in 60%
Protocol: Apomorphine (1.0 mg/kg, i.v.)-induced stereotypy (compulsive sniffing, licking, chewing) was scored every 5 min over the first hour after injection of apomorphine, following a 1 hour interval pre-treatment with the test compound. The score system was: (3) pronounced, (2) moderate, (1) slight, and (0) absent.

PDE10 = biological target: T2, PDE10 (Rattus norvegicus, UniProt Q9QYJ6); test: PDE10 occupancy ([3H]-MP-10, striatum); format: in vivo; conditions: for ED50 / receptor occupancy at 10 mg/kg: rat, sc; for ED50: dose response, subcutaneous administration, read-out: PDE10 in vivo occupancy ED50 sc; for receptor occupancy at 10 mg/kg: single dose 10 mg/kg, subcutaneous, read-out: SD sc % occupancy at 10 mg/kg
T2 construct: from tissue; host or cells: rat brain sections, striatum (in vivo dosing, ex vivo autoradiography)
T2 sequence (Q9QYJ6 1-794): T1 sequence (Q9QYJ6 1-794)
Protocol: Dose-response or single dose experiments were performed to measure PDE10 occupancy 1 hour after subcutaneous (s.c.) or oral (p.o.) administration. Male Wistar rats (200 g) were treated by s.c. or p.o. administration of various PDE10 inhibitors. The PDE10 radioligand [^3H]-MP-10 (10 μCi/animal) was injected intravenously (i.v.) 30 minutes before sacrifice. Brains were immediately removed from the skull and rapidly frozen. Twenty μm-thick brain sections were cut using a cryostat-microtome, thaw-mounted on microscope slides and loaded in a β-imager to quantify PDE10 occupancy in the striatum.

[8] = Table 4 in vitro selectivity, read-out: PDE 10A2 (expressed as pIC50) (converted)
[9] = pIC50 corresponds to the −log IC50 expressed in mol/L, read-out: PDE10A2 pIC50 (converted)
[10] = dose at which 50% of the tested animals show the effect

SMILES | IC50 [1, 8] | IC50 [1, 9] | IC50 (PDE4D3) | IC50 (PDE5A3) | IC50 [2] | IC50 [3] | IC50 [4] | IC50 [5] | IC50 [6] | ED50 [7, 10] | ED50 (PDE10) | receptor occupancy at 10 mg/kg (PDE10) | % occupancy at the highest dose tested (PDE10; dose response sc, data between brackets) | ED50 ([7]; po, * compound not soluble, tested orally as a suspension)
COC(C)(C)Cc1ccc(-c2c(C)nc3c(N4CCOCC4)ccnn23)cn1 [compound 3, 3-[6-(2-methoxy-2-methylpropyl)-3-pyridinyl]-2-methyl-8-(4-morpholinyl)-imidazo[1,2-b]pyridazine] | 26.3 nM | 26.3 nM | > 10 µM | 7.94 µM | > 10 µM | > 10 µM | > 10 µM | > 10 µM | > 10 µM | 0.8 mg/kg | 2 mg/kg | – | – | –
COCCOc1ccc(-c2c(C)nc3c(N4CCOCC4)ccnn23)cn1 [compound 16, 3-[6-(2-methoxyethoxy)-3-pyridinyl]-2-methyl-8-(4-morpholinyl)-imidazo[1,2-b]pyridazine] | 120 nM | 120 nM | > 10 µM | > 10 µM | > 10 µM | > 10 µM | > 10 µM | > 10 µM | > 10 µM | 3.1 mg/kg | – | 52% | – | –
Cc1nc2c(N3CCOCC3)ccnn2c1-c1ccc(N2CCOCC2)nc1 [compound 19, 2-methyl-8-(4-morpholinyl)-3-[6-(4-morpholinyl)-3-pyridinyl]-imidazo[1,2-b]pyridazine] | 107 nM | 107 nM | > 10 µM | > 10 µM | > 10 µM | > 10 µM | > 10 µM | > 10 µM | > 10 µM | 5 mg/kg | – | 57% | – | –
COCCc1ccc(-c2c(C3CC3)nc3c(N4CCOCC4)ccnn23)cn1 [compound 22, 2-cyclopropyl-3-[6-(2-methoxyethyl)-3-pyridinyl]-8-(4-morpholinyl)-imidazo[1,2-b]pyridazine] | 56.2 nM | 56.2 nM | 2.75 µM | 3.47 µM | 5.89 µM | > 50.1 µM | 28.2 µM | > 50.1 µM | 6.76 µM | 0.5 mg/kg | 0.94 mg/kg | – | – | –
CCc1ccc(-c2c(C)nc3c(N4CCOCC4)ccnn23)cn1 [compound 28, 3-(6-ethyl-3-pyridinyl)-2-methyl-8-(4-morpholinyl)-imidazo[1,2-b]pyridazine] | 83.2 nM | 83.2 nM | 13.2 µM | 13.8 µM | 26.9 µM | > 100 µM | 25.7 µM | 30.2 µM | 30.2 µM | 1.2 mg/kg | 1.1 mg/kg | – | – | –
Cc1nc2c(N3CCOCC3)ccnn2c1-c1ccc(N2CCNCC2)nc1 [compound 30, 2-methyl-8-(4-morpholinyl)-3-[6-(1-piperazinyl)-3-pyridinyl]-imidazo[1,2-b]pyridazine] | 123 nM | 123 nM | > 10 µM | > 10 µM | > 10 µM | > 10 µM | > 10 µM | > 10 µM | > 10 µM | 7.1 mg/kg | > 10 mg/kg | – | 6% | –
Cc1nc2c(N3CCOCC3)ccnn2c1-c1cnn(CC(C)C)c1 [compound 35, 2-methyl-3-[1-(2-methylpropyl)-1H-pyrazol-4-yl]-8-(4-morpholinyl)-imidazo[1,2-b]pyridazine] | 38 nM | 38 nM | > 10 µM | > 10 µM | > 10 µM | > 10 µM | > 10 µM | 7.41 µM | > 10 µM | 5 mg/kg | – | 67% | – | –
Cc1nc2c(-c3ccncc3)ccnn2c1-c1cnn(CC(F)(F)F)c1 [compound 135, 2-methyl-8-(4-pyridinyl)-3-[1-(2,2,2-trifluoroethyl)-1H-pyrazol-4-yl]-imidazo[1,2-b]pyridazine] | 18.2 nM | 18.2 nM | > 10 µM | 2.57 µM | > 10 µM | > 10 µM | > 10 µM | 7.41 µM | 5.89 µM | – | – | – | – | 3.1 mg/kg
COC(C)(C)Cn1cc(-c2c(C3CC3)nc3c(-c4ccncc4)ccnn23)cn1 [compound 143, 2-cyclopropyl-3-[1-(2-methoxy-2-methylpropyl)-1H-pyrazol-4-yl]-8-(4-pyridinyl)-imidazo[1,2-b]pyridazine] | 17.4 nM | 17.4 nM | 5.13 µM | 0.646 µM | 3.98 µM | > 10 µM | 5.89 µM | 1.45 µM | 1.95 µM | 1.2 mg/kg | – | – | – | –
